The text below walks through data of ChEMBL document CHEMBL1201862, “PubChem BioAssay data set” (2004).

What all share (assay type): functional
Test [1] has as its target T1, Replicative DNA helicase DnaB (Mycobacterium tuberculosis, UniProt P9WMR3).
T1 sequence (P9WMR3 whole entry): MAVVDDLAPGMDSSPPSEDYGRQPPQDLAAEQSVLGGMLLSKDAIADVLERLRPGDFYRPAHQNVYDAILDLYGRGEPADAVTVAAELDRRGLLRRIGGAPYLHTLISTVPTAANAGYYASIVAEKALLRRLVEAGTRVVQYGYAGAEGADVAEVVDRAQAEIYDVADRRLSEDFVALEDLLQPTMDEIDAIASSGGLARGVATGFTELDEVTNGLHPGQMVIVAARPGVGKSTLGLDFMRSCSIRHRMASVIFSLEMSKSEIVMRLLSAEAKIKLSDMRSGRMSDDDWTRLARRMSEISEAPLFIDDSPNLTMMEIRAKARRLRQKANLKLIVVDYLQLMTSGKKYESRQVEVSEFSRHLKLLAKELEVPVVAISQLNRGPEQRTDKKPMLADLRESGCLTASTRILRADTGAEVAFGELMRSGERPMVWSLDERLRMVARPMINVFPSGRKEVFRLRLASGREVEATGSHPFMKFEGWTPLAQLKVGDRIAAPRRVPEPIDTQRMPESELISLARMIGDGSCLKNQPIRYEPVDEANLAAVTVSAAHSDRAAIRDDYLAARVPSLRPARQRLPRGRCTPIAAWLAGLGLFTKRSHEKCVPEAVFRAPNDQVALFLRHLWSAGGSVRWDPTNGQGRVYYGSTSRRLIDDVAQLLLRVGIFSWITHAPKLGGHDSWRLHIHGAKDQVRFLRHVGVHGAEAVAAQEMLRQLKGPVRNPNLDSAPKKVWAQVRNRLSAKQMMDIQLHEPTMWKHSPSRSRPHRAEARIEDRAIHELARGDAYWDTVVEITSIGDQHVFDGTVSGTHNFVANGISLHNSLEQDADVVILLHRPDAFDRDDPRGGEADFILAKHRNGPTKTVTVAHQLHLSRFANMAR
Nature of the test: DnaB intein splicing inhibitors, dose response, biochemical, cell-free fluorescence (AID 449749).

The next test deals with T2, Protein RecA (Mycobacterium tuberculosis, UniProt P9WHJ3).
T2 sequence (P9WHJ3 whole entry): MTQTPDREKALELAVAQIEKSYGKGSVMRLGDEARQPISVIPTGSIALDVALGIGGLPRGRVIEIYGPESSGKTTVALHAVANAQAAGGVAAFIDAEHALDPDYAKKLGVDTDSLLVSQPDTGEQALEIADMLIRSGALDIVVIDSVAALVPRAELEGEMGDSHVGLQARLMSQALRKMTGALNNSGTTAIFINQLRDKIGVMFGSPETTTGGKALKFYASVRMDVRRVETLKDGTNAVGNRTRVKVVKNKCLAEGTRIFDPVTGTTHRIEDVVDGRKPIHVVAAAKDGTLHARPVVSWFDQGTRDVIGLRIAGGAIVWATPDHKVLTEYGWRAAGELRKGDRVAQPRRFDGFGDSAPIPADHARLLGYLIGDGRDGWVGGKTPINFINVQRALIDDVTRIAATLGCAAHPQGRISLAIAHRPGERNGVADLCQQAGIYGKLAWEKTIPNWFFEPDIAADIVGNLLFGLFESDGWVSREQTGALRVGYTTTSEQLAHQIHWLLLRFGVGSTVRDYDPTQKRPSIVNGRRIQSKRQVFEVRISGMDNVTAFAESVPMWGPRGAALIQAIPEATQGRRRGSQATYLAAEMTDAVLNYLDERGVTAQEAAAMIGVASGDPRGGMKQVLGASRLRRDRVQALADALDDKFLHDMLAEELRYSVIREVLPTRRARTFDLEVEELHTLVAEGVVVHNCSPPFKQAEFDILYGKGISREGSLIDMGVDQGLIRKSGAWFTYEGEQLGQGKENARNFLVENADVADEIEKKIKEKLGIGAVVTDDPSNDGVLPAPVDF
Briefly: Fluorescence Cell-Free Homogeneous Dose Retest to Identify Inhibitors of RecA-Intein Splicing Activity. [Related pubchem assays (depositor defined):AID2097, AID2223, AID489010, AID492950].

Test [2] deals with Glucose-6-phosphate 1-dehydrogenase (Homo sapiens, UniProt P11413). Nature of the test: inhibition of Homo sapiens G6PD, dose series – biochemical, fluorescence, selectivity assay for P. falciparum G6PD inhibitor project, dose response (AID 504792).
Sequence of Glucose-6-phosphate 1-dehydrogenase (P11413 whole entry): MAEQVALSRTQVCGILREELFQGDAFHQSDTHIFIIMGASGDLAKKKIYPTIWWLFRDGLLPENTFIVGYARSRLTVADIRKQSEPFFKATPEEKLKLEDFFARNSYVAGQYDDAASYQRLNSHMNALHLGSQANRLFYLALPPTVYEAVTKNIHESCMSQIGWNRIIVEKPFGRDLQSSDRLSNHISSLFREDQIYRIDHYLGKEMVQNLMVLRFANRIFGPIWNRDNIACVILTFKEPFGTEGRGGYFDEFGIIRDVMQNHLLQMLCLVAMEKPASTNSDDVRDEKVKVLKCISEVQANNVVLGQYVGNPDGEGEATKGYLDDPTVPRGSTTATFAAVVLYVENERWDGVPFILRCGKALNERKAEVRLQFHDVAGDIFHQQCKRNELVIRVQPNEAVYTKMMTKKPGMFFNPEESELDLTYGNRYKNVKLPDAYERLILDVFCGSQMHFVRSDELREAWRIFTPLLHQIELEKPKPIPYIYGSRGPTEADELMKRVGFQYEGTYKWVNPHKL

Activity calls are given as the source filed them.

As for `Cc1ccc(S(=O)(=O)N(C(=O)c2ccncc2)c2ccc(OC(=O)c3ccncc3)c3ccccc23)cc1`, the AC50 (usually the concentration giving half of the maximal activity seen) in test [1] was 1.51 µM (active). The 50% effective concentration (EC50) (as a rule, the concentration at which the effect is half-maximal) at Protein RecA was 0.315 µM (active). Also, in test [2], the IC50 (in general, the concentration that gives 50% inhibition) was > 80 µM (inactive).
